Data on 15 compounds can be found in US8129424B2, “Indole derivatives as histamine 3 receptor inhibitors for the treatment of cognitive and sleep disorders, obesity and other CNS disorders” (Athersys, Inc., priority 2005, dated 2012).

Assay [1] deals with T1, human histamine H3 receptor (Homo sapiens, UniProt Q9Y5N1).
T1 construct: expressed in transfected cells; host or cells: HT1080-Gqαi5 cells (human), pFG8-HH3 RAGE vector integrated; methotrexate-amplified clone RAGE-H3
Put plainly: Calcium mobilization assay (FLIPR), inhibition of (R)-α-methylhistamine-stimulated Ca2+ flux in RAGE-H3 cells. It counts as cell-based. Particulars: determined using FLIPR. The procedure: (§1) The human histamine H3 receptor was stably expressed in HT1080 cells containing the chimeric G-protein, Gq[…]i5 (Coward et al., Anal Biochem 1999; 270:242-8). HT1080-Gqαi5 cells were grown in alpha-modified MEM containing 10% fetal bovine serum and 7 μg/ml blasticidin at 37° C. in 5% CO2/95% atmosphere. Cells (4.8×10^9) were irradiated with 50 rads from a ^137Cs source and the pFG8-HH3 RAGE (Random Activation of Gene Expression; see Harrington et al., Nature Biotechnology. 2001; 19:440-45) vector was subsequently integrated into the cells via electroporation (250V, 600 μF, 50Ω). The RAGE vector pFG8-HH3 contained cDNA sequence coding for the first exon (83 amino acids) of human H3 receptor. After electroporation, cells were plated in T75 flasks and grown in alpha-modified MEM. The culture medium was replaced 48 hours after electroporation with alpha-modified MEM, 10% fetal bovine serum, 500 μg/ml hygromycin B and 3 μg/ml puromycin. Medium was replaced every four days during cell expansion. To identify RAGE activated cells expressing the H3 receptor, pools of approximately 10,000 colonies (5×10^7-1.5×10^8 cells total) were screened by PCR for the desired gene product (using primers specific to the RAGE vector and exon 2 of the H3 receptor). […] Positive 100 cells/well pools were identified by PCR, confirmed by sequencing, and subsequently subcloned to 0.8 cells/well. Once clones expressing the H3 receptor were identified by PCR analysis, assays (FLIPR or radioligand binding) were performed to confirm that the activated gene produced functional protein. The protein expression in the initial clones obtained from the RAGE library was increased by growth in the presence of methotrexate. Since the integrated RAGE vector contains the DHFR gene, such treatment selects for cells that have amplified the genetic locus containing the RAGE insert. Subclones obtained after methotrexate amplification were tested for functional activity in FLIPR assays to identify the clone that was most suitable for HTS. The final HT1080-Gqαi5 RAGE clone (RAGE-H3) expressing the human histamine H3 receptor was grown in alpha-modified MEM containing 10% fetal bovine serum, 3 μg/ml puromycin, 500 μg/ml hygromycin B, 3.2 μM methotrexate at 37° C. in 5% CO2/95% atmosphere.
RAGE-H3 or HT1080-mH3 cells were seeded in black 384-well plates and incubated overnight at 37° C. in a 5% CO2/95% atmosphere. After removing medium, cells were treated with CsCl Ringer's buffer (136 mM CsCl, 5.4 mM KCl, 5.5 mM D-Glucose, 20 mM Hepes, pH 7.4, 2.1 mM MgCl2, 1.2 mM CaCl2) containing the Calcium 3 dye (Molecular Device, CA) and probenecid (3.75 mM) for 60 minutes, according to manufacture's instruction. Compounds were diluted in CsCl Ringer's buffer containing 0.2% bovine serum albumin and 1.0% DMSO. The dose response of (R)-α-methylhistamine-stimulated Ca^2+ flux was measured on a Fluorometric Imaging Plate Reader (FLIPR, Molecular Devices, CA) and the concentration of (R)-α-methylhistamine to stimulate 75% of maximum response was used to test the inhibitory effect of compounds.
All data were analyzed by nonlinear least squares curve fitting using Prism 4.0 software. The KD and Bmax for [^125I]iodoproxyfan were derived from the equation RL=RtL/(KD+L), where RL is concentration of receptor-bound ligand at equilibrium, L is the free ligand concentration, and Rt is the total receptor concentration (i.e., Bmax). For competition binding experiments, IC50 values (the concentration of compound producing 50% inhibition of specific binding) and Hill Coefficients (nH) were derived from fitting the data to a 4-parameter logistic equation. Apparent Ki values were calculated using the Cheng-Prussof equation of Ki=IC50/(1+(L/KD)), where L is the ligand concentration. […]
In general terms: Calcium assays in cells follow changes in intracellular calcium, usually with a dye or a luminescent sensor.

Assay [2] has as its system H3 receptor. As to conditions: cat, cited from earlier work.
For assay [3] the following is noted: cited from earlier work.
Assay [4] deals with T2, H3 receptor (Rattus norvegicus, UniProt Q9QYN8).
T2 construct: host or cells: living rats
As to conditions: rats; cited from earlier work.

Assay [5] relates to H3 receptor. Particulars: in vivo studies; cited from earlier work.
The target of assay [6] is T1, human histamine H3 receptor. Put plainly: Radioligand competition binding assay with [125I]iodoproxyfan on RAGE-H3 cell membranes. Particulars: [125I]iodoproxyfan competition binding, apparent Ki by Cheng-Prussof equation. The protocol:
Representative compounds of the present invention that were prepared by the procedures of Examples 1-41 were evaluated in binding assays against cells expressing human H3 receptor by the following procedure.
as §1
RAGE-H3 cells (10^9) were washed twice with cold PBS, scraped off the plates, and centrifuged at 1000×g for 5 minutes. Cells were resuspended in ice-cold 10 mM Tris HCl, pH 7.4, containing 5 mM EDTA and protease inhibitor cocktail tablets (Roche Molecular Biochemicals). After incubating on ice for 10 minutes, the cells were homogenized with a dounce homogenizer or a polytron tissue grinder, and centrifuged at 1000×g for 10 minutes at 4° C. The resulting supernatant was centrifuged at 32,000×g for 30 minutes at 4° C. The membrane pellets were resuspended in 50 mM Tris HCl, pH 7.4, and stored at −80° C. until use. Protein concentration was determined by the Bradford method (Bio-Rad Laboratories, CA).
Binding assays were carried out in 96-well polypropylene plates in 50 mM Tris HCl, pH 7.4, containing 1 mM EDTA. Reaction mixtures contained 100 μl of membrane suspension, 50 of 4% DMSO, and 50 μl of increasing amounts of [^125I]iodoproxyfan (final concentration 0.0005-1.8 nM for human H3 receptor saturation binding assay). Nonspecific binding was defined by adding 10 μM clobenpropit to the reaction mixtures. Competition binding assays were performed in a reaction mixture containing 100 μl of membrane suspension (˜20 μg of protein/well), 50 μl of [^125I]iodoproxyfan (final concentration of ˜0.15 nM) and 50 μl of test compound. Compounds were dissolved in DMSO and then diluted with 4% DMSO; the final maximal DMSO concentration in the binding assays was 1%. […]
A general note: In a radioligand displacement assay an active substance lowers the binding of a labelled ligand.

T1 sequence (Q9Y5N1 whole entry): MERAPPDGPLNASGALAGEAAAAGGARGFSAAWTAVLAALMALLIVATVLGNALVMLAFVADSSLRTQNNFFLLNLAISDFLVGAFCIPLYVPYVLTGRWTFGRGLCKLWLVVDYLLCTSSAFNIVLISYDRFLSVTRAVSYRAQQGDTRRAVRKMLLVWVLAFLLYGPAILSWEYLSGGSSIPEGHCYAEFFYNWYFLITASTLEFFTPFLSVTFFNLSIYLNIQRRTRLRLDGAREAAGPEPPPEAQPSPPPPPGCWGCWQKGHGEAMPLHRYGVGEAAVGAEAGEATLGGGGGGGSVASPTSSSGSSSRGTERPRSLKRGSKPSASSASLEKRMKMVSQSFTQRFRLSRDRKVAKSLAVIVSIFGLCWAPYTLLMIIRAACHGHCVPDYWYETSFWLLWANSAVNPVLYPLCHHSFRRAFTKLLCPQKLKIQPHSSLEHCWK
T2 sequence (Q9QYN8 whole entry): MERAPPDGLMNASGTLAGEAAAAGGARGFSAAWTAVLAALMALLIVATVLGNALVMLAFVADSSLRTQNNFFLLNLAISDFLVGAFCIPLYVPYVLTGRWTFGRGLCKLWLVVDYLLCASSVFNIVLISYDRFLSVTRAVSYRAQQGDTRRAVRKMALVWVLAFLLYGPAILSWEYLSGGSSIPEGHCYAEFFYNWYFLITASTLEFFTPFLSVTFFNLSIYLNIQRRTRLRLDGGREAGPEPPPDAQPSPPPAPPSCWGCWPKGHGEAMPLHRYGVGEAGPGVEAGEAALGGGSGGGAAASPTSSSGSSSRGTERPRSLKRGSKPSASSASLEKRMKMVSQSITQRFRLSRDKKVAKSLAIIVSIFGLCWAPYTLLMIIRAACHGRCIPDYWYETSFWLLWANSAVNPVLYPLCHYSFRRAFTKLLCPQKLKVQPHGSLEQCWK

Usually IC50 stands for the concentration at which inhibition is half-maximal. Regarding `c1ccc2c(c1)cc(C1CC1)n2-c1ccc(OCCCN2CCCC2)cc1` [Example 37, 2-Cyclopropyl-1-[4-(3-pyrrolidin-1-ylpropoxy)phenyl]-1H-indole], the IC50 in assay [1] is less than 100 nM.
For `c1ccc2c(c1)ccn2-c1ccc(OCCCN2CCCC2)cc1` [Example 4, 1-[4-(3-Pyrrolidin-1-ylpropoxy)phenyl]-1H-indole], the IC50 in assay [1] was less than 100 nM.
Still for that read-out and setting: the figure for `COc1ccc2c(ccn2-c2ccc(OCCCN3CCCC3)cc2)c1` [Example 9, 5-Methoxy-1-[4-(3-pyrrolidin-1-ylpropoxy)phenyl]-1H-indole] is less than 1000 nM; for `COc1cc(-n2c(C)cc3ccccc32)ccc1OCCCN1CCCC1` [Example 14, 1-[3-Methoxy-4-(3-pyrrolidin-1-ylpropoxy)phenyl]-2-methyl-1H-indole] it is less than 1000 nM.
With `Clc1ccc2c(ccn2-c2ccc(OCCCN3CCCC3)cc2)c1` [Example 10, 5-Chloro-1-[4-(3-pyrrolidin-1-ylpropoxy)phenyl]-1H-indole], the IC50 in assay [1] is less than 1000 nM.
Take `C[C@@H](N)Cc1cnc[nH]1` [RAMHA]: the “deep slow wave sleep” value with H3 receptor [2] (oral administration) is on record as “significant increase”.
Consider `S=C(NC1CCCCC1)N1CCC(c2cnc[nH]2)CC1` [thioperamide], for which the “durations of every convulsive phase” value in assay [3] (after electrically-induced convulsions) is “significantly and dose-dependently decrease”. Further, the electroconvulsive threshold entry in assay [3] (in vivo) is reported as “increase”. On H3 receptor [4], the “slow-wave and REM sleep” value was “decrease”. For the same compound, the wakefulness entry is on record as “increase wakefulness” at H3 receptor [4] and “enhanced wakefulness in a dose-dependent fashion” in the assay with H3 receptor [2]. For the same compound, the “synthesis and release of histamine” value in the assay with H3 receptor [5] is “increase”.
Consider `Clc1cccc2c1ccn2-c1ccc(OCCCN2CCCC2)cc1` [Example 8, 4-Chloro-1-[4-(3-pyrrolidin-1-ylpropoxy)phenyl]-1H-indole], for which the IC50 in assay [1] is less than 1000 nM.
Turning to `Cc1cc2ccccc2n1-c1ccc(OCCCN2CCCC2)c(Cl)c1` [Example 15, 1-[3-Chloro-4-(3-pyrrolidin-1-ylpropoxy)phenyl]-2-methyl-1H-indole], the IC50 in assay [1] was less than 1000 nM.
`COc1ccc2c(c1)cc(C)n2-c1ccc(OCCCN2CCCC2)cc1` [Example 5, 5-Methoxy-2-methyl-1-[4-(3-pyrrolidin-1-ylpropoxy)phenyl]-1H-indole]: the IC50 in assay [1] was less than 100 nM.
As to `Brc1ccc2c(ccn2-c2ccc(OCCCN3CCCC3)cc2)c1` [Example 7, 5-Bromo-1-[4-(3-pyrrolidin-1-ylpropoxy)phenyl]-1H-indole], the IC50 in assay [1] was less than 1000 nM.
Regarding `Cc1ccc2c(ccn2-c2ccc(OCCCN3CCCC3)cc2)c1` [Example 6, 5-Methyl-1-[4-(3-pyrrolidin-1-ylpropoxy)phenyl]-1H-indole], the IC50 in assay [1] is less than 1000 nM.
Turning to `COc1ccc2c(c1)cc(C)n2-c1ccc(C#CCCN2CCCC2)cc1` [Example 17, 5-Methoxy-2-methyl-1-[4-(4-pyrrolidin-1-ylbut-1-ynyl)phenyl]-1H-indole], the IC50 in assay [1] is less than 100 nM.
With `C[C@@H]1CCCN1CCCOc1ccc(-n2c(C(=O)NC3CCCCC3)cc3ccccc32)cc1` [Example 21, 1-{4-[3-(2R-Methylpyrrolidin-1-yl)propoxy]phenyl}-1H-indole-2-carboxylic acid cyclohexylamide], the Ki in assay [6] was less than 100 nM.
With `Cc1cc2ccccc2n1-c1ccc(OCCCN2CCC[C@H]2C)cc1` [Example 3, 2-Methyl-1-{4-[3-(2R-methylpyrrolidin-1-yl)propoxy]phenyl}-1H-indole], in assay [6], the Ki is less than 10 nM.
